The text below walks through data of ChEMBL document CHEMBL5678818, “Discovery of potent SOS1 inhibitors that block RAS activation via disruption of the RAS-SOS1 interaction” (Proc Natl Acad Sci U S A, 2019).

Assay [1] addresses Son of sevenless homolog 1 (Homo sapiens, UniProt Q07889). As to the kind of experiment: Inhibition of N-terminal His10-tagged wild-type recombinant human SOS1 catalytic domain (564 to 1049 residues) expressed in Escherichia coli assessed as reduction in KRAS G12C mutant activation preincubated for 10 mins with KRAS followed by SOS1 addition measured after 30 mins in presence of EDA-GTP-DY-647P1 by HTRF analysis.

In assay [2] the target is Platelet-derived growth factor receptor alpha (Homo sapiens) (UniProt P16234). As to the kind of experiment: Inhibition of PDGFRA (unknown origin) assessed as residual activity at 100 nM by KINOMEscan analysis relative to control.
In assay [3] the target is T1, Aurora kinase A (Homo sapiens) (UniProt O14965).
T1 sequence (whole entry): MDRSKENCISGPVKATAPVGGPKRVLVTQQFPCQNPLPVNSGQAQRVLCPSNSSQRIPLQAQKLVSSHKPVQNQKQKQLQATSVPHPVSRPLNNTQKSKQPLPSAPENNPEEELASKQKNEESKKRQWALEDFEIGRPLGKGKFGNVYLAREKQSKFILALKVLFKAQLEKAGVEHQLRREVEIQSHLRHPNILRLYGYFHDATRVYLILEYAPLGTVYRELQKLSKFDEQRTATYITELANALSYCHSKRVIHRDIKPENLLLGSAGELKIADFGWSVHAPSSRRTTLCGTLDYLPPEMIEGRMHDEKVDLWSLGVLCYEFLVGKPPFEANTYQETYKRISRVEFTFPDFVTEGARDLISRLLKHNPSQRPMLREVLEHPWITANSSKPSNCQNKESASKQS
The assay is described as follows: Inhibition of AURKA (unknown origin) assessed as residual activity at 100 nM by KINOMEscan analysis relative to control.

Assay [4] addresses Serine/threonine-protein kinase Chk2 (Homo sapiens) (UniProt O96017). As to the kind of experiment: Inhibition of CHEK2 (unknown origin) assessed as residual activity at 100 nM by KINOMEscan analysis relative to control.
Assay [5] has as its target Serine/threonine-protein kinase MARK1 (Homo sapiens) (UniProt Q9P0L2). The assay is described as follows: Inhibition of MARK1 (unknown origin) assessed as residual activity at 100 nM by KINOMEscan analysis relative to control.
The test system of assay [6] is Phosphatidylinositol 4,5-bisphosphate 3-kinase catalytic subunit alpha isoform (Homo sapiens), P42336 [E542K]. The assay is described as follows: Inhibition of PIK3CA E542K mutant (unknown origin) assessed as residual activity at 100 nM by KINOMEscan analysis relative to control.
Assay [7] concerns the target T2, Bone morphogenetic protein receptor type-2 (Homo sapiens) (UniProt Q13873).
T2 sequence (whole entry): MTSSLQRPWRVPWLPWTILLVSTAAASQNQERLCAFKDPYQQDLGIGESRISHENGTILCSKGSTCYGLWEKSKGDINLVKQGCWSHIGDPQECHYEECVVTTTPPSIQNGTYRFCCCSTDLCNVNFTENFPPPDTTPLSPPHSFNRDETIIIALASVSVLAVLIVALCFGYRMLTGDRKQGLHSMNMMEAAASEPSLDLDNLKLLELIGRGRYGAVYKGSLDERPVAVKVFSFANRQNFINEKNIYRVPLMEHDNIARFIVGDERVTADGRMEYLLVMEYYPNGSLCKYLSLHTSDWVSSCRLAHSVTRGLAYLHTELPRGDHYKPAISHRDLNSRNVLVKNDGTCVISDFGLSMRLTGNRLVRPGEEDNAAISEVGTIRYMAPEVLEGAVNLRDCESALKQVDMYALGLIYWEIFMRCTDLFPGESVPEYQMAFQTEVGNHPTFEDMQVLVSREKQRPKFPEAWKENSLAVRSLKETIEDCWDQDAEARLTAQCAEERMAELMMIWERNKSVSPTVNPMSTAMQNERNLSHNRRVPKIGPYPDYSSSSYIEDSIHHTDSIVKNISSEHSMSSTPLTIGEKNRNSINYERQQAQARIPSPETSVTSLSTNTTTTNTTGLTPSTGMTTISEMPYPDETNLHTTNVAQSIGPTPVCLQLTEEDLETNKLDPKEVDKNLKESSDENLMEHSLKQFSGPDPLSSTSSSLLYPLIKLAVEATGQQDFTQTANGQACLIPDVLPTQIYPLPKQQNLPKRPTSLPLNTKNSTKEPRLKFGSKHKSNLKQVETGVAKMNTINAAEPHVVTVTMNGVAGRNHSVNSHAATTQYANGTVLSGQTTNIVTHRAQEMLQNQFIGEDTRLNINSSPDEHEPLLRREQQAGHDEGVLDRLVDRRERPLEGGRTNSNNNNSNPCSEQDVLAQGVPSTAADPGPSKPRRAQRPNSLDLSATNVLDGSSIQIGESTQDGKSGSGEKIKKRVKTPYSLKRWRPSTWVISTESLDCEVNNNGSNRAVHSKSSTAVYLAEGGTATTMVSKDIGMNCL
The assay is described as follows: Inhibition of BMPR2 (unknown origin) assessed as residual activity at 100 nM by KINOMEscan analysis relative to control.

In assay [8] the target is Serine/threonine-protein kinase MARK2 (Homo sapiens) (UniProt Q7KZI7). The assay is described as follows: Inhibition of MARK2 (unknown origin) assessed as residual activity at 100 nM by KINOMEscan analysis relative to control.
For assay [9], the target named is Casein kinase I isoform alpha (Homo sapiens) (UniProt P48729). As to the kind of experiment: Inhibition of CSNK1A1 (unknown origin) assessed as residual activity at 100 nM by KINOMEscan analysis relative to control.
In assay [10] the target is Macrophage-stimulating protein receptor (Homo sapiens) (UniProt Q04912). The assay is described as follows: Inhibition of MST1R (unknown origin) assessed as residual activity at 100 nM by KINOMEscan analysis relative to control.
The target of assay [11] is T3, Tyrosine-protein kinase TXK (Homo sapiens) (UniProt P42681).
T3 sequence (whole entry): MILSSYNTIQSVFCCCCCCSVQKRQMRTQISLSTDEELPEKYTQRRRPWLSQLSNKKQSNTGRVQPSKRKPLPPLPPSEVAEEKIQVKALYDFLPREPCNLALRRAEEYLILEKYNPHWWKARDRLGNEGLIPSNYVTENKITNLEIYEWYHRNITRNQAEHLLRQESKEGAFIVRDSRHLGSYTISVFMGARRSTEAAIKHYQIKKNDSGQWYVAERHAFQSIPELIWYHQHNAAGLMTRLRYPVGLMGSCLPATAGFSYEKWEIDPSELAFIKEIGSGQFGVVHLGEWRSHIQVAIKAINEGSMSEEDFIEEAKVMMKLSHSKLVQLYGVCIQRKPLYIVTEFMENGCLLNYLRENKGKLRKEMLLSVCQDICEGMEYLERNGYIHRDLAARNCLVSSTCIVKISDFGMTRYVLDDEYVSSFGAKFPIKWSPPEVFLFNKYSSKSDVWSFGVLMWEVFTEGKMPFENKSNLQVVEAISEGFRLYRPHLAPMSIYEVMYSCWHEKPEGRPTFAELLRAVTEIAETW
As to the kind of experiment: Inhibition of TXK (unknown origin) assessed as residual activity at 100 nM by KINOMEscan analysis relative to control.

Assay [12] addresses Homeodomain-interacting protein kinase 1 (Homo sapiens) (UniProt Q86Z02). The assay is described as follows: Inhibition of HIPK1 (unknown origin) assessed as residual activity at 100 nM by KINOMEscan analysis relative to control.

Platelet-derived growth factor receptor alpha (Homo sapiens), sequence (P16234 whole entry): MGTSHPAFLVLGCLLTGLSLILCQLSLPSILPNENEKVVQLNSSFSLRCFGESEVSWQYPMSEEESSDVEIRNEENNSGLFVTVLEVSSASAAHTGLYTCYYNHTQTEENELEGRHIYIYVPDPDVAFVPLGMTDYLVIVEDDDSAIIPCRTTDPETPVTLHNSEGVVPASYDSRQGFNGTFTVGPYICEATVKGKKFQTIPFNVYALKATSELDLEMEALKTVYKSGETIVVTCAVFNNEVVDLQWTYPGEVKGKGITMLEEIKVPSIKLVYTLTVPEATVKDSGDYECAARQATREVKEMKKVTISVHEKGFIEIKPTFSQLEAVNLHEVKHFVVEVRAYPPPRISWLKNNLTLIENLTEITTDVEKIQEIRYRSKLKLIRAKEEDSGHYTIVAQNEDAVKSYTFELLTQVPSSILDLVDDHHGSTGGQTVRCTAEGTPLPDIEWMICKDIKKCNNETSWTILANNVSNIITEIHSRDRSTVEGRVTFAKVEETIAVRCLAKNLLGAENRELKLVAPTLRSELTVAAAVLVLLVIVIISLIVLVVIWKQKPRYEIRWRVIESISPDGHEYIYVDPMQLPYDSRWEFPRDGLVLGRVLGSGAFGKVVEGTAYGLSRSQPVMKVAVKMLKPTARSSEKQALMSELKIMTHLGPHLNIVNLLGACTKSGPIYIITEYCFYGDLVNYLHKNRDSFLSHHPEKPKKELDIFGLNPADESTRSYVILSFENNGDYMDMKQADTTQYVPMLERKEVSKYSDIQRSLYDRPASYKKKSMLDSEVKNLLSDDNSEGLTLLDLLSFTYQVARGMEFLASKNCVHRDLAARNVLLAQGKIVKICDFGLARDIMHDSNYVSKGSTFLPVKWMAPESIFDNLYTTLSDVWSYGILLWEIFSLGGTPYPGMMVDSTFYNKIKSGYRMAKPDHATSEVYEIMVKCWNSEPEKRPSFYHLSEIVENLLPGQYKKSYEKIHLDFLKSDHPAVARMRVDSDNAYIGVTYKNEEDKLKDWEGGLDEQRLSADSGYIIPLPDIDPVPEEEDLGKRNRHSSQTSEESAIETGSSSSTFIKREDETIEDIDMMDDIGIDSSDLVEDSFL
Casein kinase I isoform alpha (Homo sapiens), sequence (P48729 2-337 limits assumed): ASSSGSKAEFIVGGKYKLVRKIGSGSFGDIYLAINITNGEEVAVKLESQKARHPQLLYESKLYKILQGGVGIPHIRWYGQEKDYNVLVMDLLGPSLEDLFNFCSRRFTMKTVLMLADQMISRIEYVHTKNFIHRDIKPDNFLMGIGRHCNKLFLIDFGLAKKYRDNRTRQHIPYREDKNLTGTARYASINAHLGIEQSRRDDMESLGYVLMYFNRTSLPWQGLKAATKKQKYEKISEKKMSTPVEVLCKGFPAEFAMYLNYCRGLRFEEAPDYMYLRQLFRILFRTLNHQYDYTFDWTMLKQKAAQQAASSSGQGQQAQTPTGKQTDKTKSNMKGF
Son of sevenless homolog 1, sequence (Q07889 whole entry, looked up, stated change not applied, the tested form may be a part): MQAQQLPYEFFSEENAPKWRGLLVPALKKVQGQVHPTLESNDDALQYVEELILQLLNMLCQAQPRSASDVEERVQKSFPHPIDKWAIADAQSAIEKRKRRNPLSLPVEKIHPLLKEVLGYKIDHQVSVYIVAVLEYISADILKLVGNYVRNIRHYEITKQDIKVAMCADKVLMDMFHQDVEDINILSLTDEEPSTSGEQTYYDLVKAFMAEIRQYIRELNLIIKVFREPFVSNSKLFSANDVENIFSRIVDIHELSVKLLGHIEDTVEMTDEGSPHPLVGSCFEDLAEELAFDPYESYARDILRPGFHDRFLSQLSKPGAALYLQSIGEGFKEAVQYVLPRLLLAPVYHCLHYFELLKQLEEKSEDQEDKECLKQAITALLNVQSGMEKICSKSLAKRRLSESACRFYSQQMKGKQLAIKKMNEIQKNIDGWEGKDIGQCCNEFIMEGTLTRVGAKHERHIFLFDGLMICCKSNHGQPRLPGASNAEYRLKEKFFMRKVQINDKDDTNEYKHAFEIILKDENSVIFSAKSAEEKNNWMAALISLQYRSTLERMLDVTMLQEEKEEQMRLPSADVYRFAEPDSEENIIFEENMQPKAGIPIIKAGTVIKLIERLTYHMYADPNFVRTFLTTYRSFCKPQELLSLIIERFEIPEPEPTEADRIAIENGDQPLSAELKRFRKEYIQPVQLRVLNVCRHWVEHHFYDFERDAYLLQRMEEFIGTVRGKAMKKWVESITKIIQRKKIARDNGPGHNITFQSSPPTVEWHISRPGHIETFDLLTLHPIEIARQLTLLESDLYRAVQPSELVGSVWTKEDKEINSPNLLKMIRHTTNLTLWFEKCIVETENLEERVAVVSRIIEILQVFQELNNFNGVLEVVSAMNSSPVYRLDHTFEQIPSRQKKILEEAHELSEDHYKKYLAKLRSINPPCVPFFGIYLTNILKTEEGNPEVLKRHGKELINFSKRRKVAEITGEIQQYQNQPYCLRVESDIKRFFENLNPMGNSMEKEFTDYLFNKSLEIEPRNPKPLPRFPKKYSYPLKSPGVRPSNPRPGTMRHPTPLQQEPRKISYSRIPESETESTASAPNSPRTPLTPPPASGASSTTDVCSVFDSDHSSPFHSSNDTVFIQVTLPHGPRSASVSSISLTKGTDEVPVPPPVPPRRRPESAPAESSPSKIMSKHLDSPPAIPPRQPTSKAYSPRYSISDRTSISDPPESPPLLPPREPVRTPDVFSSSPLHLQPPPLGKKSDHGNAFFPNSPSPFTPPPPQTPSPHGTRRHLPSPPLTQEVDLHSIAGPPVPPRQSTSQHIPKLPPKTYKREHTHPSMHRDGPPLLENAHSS
Macrophage-stimulating protein receptor (Homo sapiens), sequence (Q04912 25-304 limits assumed): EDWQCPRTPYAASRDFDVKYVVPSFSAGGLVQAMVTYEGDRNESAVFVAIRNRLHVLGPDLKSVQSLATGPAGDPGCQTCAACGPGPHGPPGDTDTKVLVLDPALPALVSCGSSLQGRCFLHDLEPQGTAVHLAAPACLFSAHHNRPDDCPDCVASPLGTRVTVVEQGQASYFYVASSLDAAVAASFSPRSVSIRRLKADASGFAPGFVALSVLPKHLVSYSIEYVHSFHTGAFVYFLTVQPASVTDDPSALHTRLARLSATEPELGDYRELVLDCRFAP
Macrophage-stimulating protein receptor (Homo sapiens), sequence (Q04912 310-1400 limits assumed): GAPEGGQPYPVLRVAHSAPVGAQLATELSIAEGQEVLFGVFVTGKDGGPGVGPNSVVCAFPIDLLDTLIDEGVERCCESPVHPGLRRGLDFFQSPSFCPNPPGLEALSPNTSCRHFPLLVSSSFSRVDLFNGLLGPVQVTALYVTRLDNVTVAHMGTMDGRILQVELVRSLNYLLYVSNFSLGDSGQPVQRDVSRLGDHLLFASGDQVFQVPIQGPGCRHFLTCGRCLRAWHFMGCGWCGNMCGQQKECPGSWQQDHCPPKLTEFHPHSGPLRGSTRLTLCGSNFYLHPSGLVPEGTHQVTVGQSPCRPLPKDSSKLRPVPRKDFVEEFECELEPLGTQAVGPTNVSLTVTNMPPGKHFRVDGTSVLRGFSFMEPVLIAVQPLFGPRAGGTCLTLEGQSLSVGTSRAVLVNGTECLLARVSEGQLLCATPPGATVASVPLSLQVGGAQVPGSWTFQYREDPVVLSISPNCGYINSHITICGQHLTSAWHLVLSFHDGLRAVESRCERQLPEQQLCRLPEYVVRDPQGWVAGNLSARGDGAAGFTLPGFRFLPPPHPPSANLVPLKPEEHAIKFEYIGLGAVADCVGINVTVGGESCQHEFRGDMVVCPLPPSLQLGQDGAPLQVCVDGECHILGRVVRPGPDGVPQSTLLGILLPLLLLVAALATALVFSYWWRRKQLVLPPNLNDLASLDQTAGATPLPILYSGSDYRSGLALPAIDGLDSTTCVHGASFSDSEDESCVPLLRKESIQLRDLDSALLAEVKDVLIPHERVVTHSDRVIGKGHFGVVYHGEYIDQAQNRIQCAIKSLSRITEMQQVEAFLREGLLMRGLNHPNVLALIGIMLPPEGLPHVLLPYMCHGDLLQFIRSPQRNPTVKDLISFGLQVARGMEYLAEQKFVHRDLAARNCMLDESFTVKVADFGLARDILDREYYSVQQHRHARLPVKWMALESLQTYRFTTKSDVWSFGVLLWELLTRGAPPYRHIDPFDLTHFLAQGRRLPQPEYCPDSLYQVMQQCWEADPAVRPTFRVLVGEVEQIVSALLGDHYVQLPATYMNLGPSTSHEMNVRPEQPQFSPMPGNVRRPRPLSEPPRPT
Serine/threonine-protein kinase MARK1 (Homo sapiens), sequence (Q9P0L2 whole entry, looked up, canonical isoform): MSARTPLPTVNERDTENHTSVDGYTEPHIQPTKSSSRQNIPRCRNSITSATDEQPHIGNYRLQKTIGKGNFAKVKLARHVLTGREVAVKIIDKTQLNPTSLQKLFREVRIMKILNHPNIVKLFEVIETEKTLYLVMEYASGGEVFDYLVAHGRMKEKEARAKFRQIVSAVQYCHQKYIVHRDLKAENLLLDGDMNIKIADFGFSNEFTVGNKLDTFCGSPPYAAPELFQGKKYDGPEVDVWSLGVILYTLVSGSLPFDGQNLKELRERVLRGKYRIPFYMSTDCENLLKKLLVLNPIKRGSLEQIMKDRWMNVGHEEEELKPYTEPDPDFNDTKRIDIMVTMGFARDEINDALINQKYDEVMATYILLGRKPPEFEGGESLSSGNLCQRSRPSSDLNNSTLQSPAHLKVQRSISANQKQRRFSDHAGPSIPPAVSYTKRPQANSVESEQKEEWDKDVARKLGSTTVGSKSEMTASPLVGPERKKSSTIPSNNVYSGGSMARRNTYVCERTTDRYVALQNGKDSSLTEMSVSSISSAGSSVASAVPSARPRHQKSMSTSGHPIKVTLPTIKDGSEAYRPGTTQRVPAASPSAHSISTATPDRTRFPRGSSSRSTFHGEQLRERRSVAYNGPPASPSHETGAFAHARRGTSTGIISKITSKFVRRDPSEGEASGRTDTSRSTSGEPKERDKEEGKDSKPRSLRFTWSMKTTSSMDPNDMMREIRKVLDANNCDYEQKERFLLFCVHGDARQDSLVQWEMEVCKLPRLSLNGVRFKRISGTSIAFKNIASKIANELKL

For the compound `COc1cc2nc(C)nc(NC(C)c3ccc(-c4cnc5n4CCC5)s3)c2cc1OC` (configuration not stated), in assay [1], the IC50 was 930 nM.
On to `COc1cc2ncnc(N[C@H](C)c3cccc4ccccc34)c2cc1OC`, for which the Activity is 100% in assay [2]; 100% in assay [3]; 100% in [4]; 100% in [5]; 74% in [6]; 97% in assay [7]. Further, the Activity in [8] came to 82%; in [9] it was 93%; in [10], 100%; in assay [11], 67%; in [12] it was 75%.
